Test results from ChEMBL document CHEMBL4390692, “Enzymatic activation of indolequinone-substituted 5-fluorodeoxyuridine prodrugs in hypoxic cells” (Bioorg Med Chem Lett, 2019).
One block for each molecule: values may come before it. The source made the active and inactive calls. The rule behind the calls is not given here.

Assays:
A549 [1] = assay: Cytotoxicity against human A549 cells at 1 to 50 uM treated 24 hrs post hypoxic condition measured after 72 hrs under hypoxic condition by WST-8 assay relative to control; type: functional, cell-based
A549 [2] = assay: Cytotoxicity against human A549 cells at 1 uM treated 24 hrs post aerobic condition and measured after 72 hrs under aerobic condition by WST-8 assay relative to control; type: cell-based; conditions: a549, 72 h
[3] = biological target: T1, NADPH--cytochrome P450 reductase (Homo sapiens, UniProt P16435); assay: Prodrug activation in pH 7.4 PBS buffer assessed as 3.3 ug/mL NADPH-cytochrome P450 reductase (unknown origin) mediated FdUrd formation at 0.62 mM in the presence of beta-NADPH measured after 2 hrs under aerobic condition by reverse phase HPLC; type: ADME; conditions: pH 7.4, 2 h, 620 µM
T1 sequence (P16435 whole entry): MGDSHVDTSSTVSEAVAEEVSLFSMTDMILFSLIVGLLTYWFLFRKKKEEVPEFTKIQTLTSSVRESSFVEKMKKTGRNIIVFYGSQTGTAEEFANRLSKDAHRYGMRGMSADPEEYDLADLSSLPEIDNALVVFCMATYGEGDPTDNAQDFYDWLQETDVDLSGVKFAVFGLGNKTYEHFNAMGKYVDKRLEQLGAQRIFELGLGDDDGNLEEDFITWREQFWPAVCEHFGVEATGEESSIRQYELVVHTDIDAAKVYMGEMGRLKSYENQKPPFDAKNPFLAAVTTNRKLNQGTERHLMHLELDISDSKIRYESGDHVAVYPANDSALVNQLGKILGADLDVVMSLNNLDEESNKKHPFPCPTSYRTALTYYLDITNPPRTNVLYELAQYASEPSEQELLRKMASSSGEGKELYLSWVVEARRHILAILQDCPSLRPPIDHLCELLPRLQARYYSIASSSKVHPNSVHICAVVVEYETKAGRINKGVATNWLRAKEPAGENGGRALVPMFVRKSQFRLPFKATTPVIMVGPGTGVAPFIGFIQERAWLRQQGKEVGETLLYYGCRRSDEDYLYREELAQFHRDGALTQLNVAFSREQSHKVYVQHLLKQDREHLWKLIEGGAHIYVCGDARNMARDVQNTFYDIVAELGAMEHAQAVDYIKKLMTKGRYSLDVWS

[4] = biological target: T1, NADPH--cytochrome P450 reductase; assay: Prodrug activation in pH 7.4 PBS buffer assessed as 3.3 ug/mL NADPH-cytochrome P450 reductase (unknown origin) mediated FdUrd formation at 0.62 mM in the presence of beta-NADPH measured after 2 hrs under hypoxic condition by reverse phase HPLC relative to control; type: ADME; conditions: pH 7.4, 2 h, 620 µM
[5] = substrate: COC1=CC(=O)c2c(c(Cn3c(=O)c(F)cn([C@H]4C[C@H](O)[C@@H](CO)O4)c3=O)c(C)n2C)C1=O; assay: Prodrug conversion in pH 7.4 PBS buffer assessed as NADPH-cytochrome P450 reductase (unknown origin) mediated FdUrd release by measuring Km at 0.62 mM in the presence of beta-NADPH measured after 2 hrs under hypoxic condition by Lineweaver-Burk plot analysis; type: ADME, Homo sapiens
[6] = substrate: COC1=CC(=O)c2c(c(Cn3c(=O)c(F)cn([C@H]4C[C@H](O)[C@@H](CO)O4)c3=O)c(C)n2C)C1=O; assay: Prodrug conversion in pH 7.4 PBS buffer assessed as NADPH-cytochrome P450 reductase (unknown origin) mediated FdUrd release by measuring Km at 0.62 mM in the presence of beta-NADPH measured after 2 hrs under aerobic condition by Lineweaver-Burk plot analysis; type: ADME, Homo sapiens

Molecule: O=c1[nH]c(=O)n([C@H]2C[C@H](O)[C@@H](CO)O2)cc1F [FLOXURIDINE]
- Activity (A549 [2]): Toxic

B1: NADPH--cytochrome P450 reductase (Homo sapiens) (protein)
chain: MGDSHVDTSSTVSEAVAEEVSLFSMTDMILFSLIVGLLTYWFLFRKKKEEVPEFTKIQTLTSSVRESSFVEKMKKTGRNIIVFYGSQTGTAEEFANRLSKDAHRYGMRGMSADPEEYDLADLSSLPEIDNALVVFCMATYGEGDPTDNAQDFYDWLQETDVDLSGVKFAVFGLGNKTYEHFNAMGKYVDKRLEQLGAQRIFELGLGDDDGNLEEDFITWREQFWPAVCEHFGVEATGEESSIRQYELVVHTDIDAAKVYMGEMGRLKSYENQKPPFDAKNPFLAAVTTNRKLNQGTERHLMHLELDISDSKIRYESGDHVAVYPANDSALVNQLGKILGADLDVVMSLNNLDEESNKKHPFPCPTSYRTALTYYLDITNPPRTNVLYELAQYASEPSEQELLRKMASSSGEGKELYLSWVVEARRHILAILQDCPSLRPPIDHLCELLPRLQARYYSIASSSKVHPNSVHICAVVVEYETKAGRINKGVATNWLRAKEPAGENGGRALVPMFVRKSQFRLPFKATTPVIMVGPGTGVAPFIGFIQERAWLRQQGKEVGETLLYYGCRRSDEDYLYREELAQFHRDGALTQLNVAFSREQSHKVYVQHLLKQDREHLWKLIEGGAHIYVCGDARNMARDVQNTFYDIVAELGAMEHAQAVDYIKKLMTKGRYSLDVWS
- Km [5]: 1000 µM
- Vmax [5]: 3.4e-06 µmol/min
- Km [6]: 1500 µM
- Vmax [6]: 2e-07 µmol/min

Second part, led by results:

- Drug metabolism [3]: Metabolite_Notdetected
Molecule: COC1=CC(=O)c2c(c(Cn3c(=O)c(F)cn([C@H]4C[C@H](O)[C@@H](CO)O4)c3=O)c(C)n2C)C1=O
- Activity (A549 [1]): Active
- Activity (A549 [2]): Non-Toxic

- Drug metabolism [4]: Metabolite_Notdetected
Molecule: CNC1=CC(=O)c2c(c(Cn3c(=O)c(F)cn([C@H]4C[C@H](O)[C@@H](CO)O4)c3=O)c(C)n2C)C1=O
